In US8933142B2, “Low-extractable thioxanthones” (Lamberti Spa, priority 2010, dated 2015):

Legend:
[1] = Through-cure (thumb twist test), as photoinitiator; conditions: 3% thioxanthone derivative, 3% Esacure A 198, cyan ink, 3 μm on coated cardboard, Hg lamp 120 W/cm
Description: (§1) Evaluation of “Through-Cure”
(§2) The “through cure” test evaluates the degree of cross-linking of the deeper layers of the formulate (film) spread on the substrate. The film is considered completely crosslinked when it is not detached from the substrate or damaged by the “thumb twist test”. The test is carried out at various speeds of exposure to UV source. The higher the speed the higher the reactivity of the system.
(§3) The products described in the examples were tested both as photoinitiators and sensitizers. For the evaluation as photoinitiator the following formulation is employed (by weight): 3% of derivative of thioxanthone of formula I, 3% of Esacure A 198, up to 100% with cyan ink for off-set printing. For the evaluation as sensitizers the formulation is composed as follows (by weight): 0.5% of derivative of thioxanthone of formula I, 3% of Esacure A 198, 3% of Esacure 1001, up to 100% with cyan ink for off-set printing.
(§4) The resulting mixtures are milled with a three cylinders mill (laboratory scale) and applied on a coated cardboard with a thickness of 3 μm by means of film coater (RK Print Coater Instrument Ltd), then exposed at different speed to a mercury vapors lamp at high pressure 120 W/cm.
(§5) ITX, in the same amounts, is chosen as reference.

[2] = Formulability through solubility in methylene chloride; conditions: room temperature, stirring
Description: 10 g of the thioxanthone derivatives under investigation are weighed and suspended in the same amount of solvent; the mixture is maintained under stirring at room temperature.
After 2 min the clearness of the solution is evaluated: if the sample is not dissolved further aliquots of solvent are added, keeping the mixture under stirring for two min after each addition until complete solubilization.

[3] = FT-IR degree of polymerization in a pigmented composition (as sensitizer of Esacure 1001); conditions: 0.5% sensitizer, 3% Esacure 1001, 3% Esacure A 198, cyan ink, 3 μm film
Description: The compounds described in the examples were evaluated also as sensitizer in a pigmented composition as described below.
Pigmented photopolymerizable compositions are prepared by mixing 3% by weight of both Esacure 1001 and coinitiator Esacure A 198 (both commercialized by Lamberti S.p.A.), 0.5% by weight of derivatives of thioxanthone of the Examples listed in Table 1 and up to 100% by weight of a cyan ink for off-set inking. ITX is used as reference sensitizer.
The photopolymerizable compositions are milled with a three cylinders mill (laboratory scale) in order to homogenize the mix and applied with a thickness of 3 μm on a soft polyethylene substrate by means of film coater (RK Print Coater Instrument Ltd).
The sample, placed in the sample lodgment of a FT-IR (FT-IR 430-Jasco), is exposed to a Mercury/Xenon Vapors light source at high pressure to 120 W/cm (L8868 Light-cure, Hamamatsu) set at a distance of 8 cm from the sample with an angle of 30°.
IR spectra were acquired at constant time during the photopolymerization and the reduction over the time of the area of the peak at 1408 cm^−1 assigned to the acrylic double bond is determined with the help of a IR software (Perkin Elmer, Spectrum ONE v. 2.0).
This allows to quantify the degree of polymerization over time and therefore the efficiency of the photoinitiator.

[4] = Through-cure (thumb twist test), as sensitizer; conditions: 0.5% thioxanthone derivative, 3% Esacure A 198, 3% Esacure 1001, cyan ink, 3 μm on coated cardboard, Hg lamp 120 W/cm
Description: as §1, §2, §3, §4, §5

[5] = FT-IR degree of polymerization in a pigmented photopolymerizable composition (as photoinitiator); conditions: 3% photoinitiator, 3% Esacure A198, cyan ink, 3 μm film, Hg/Xe lamp 120 W/cm
Description: Evaluation of the Derivatives of Thioxanthone in a Pigmented Photopolymerizable Composition by Means of FT-IR.
Pigmented photopolymerizable compositions are prepared by mixing 3% by weight of both the photoinitiators of formula I (Examples 1-6) and the coinitiator Esacure A198 (bis-N,N-[4-dimethyl aminobenzoyl)oxyethylen-1-yl]-methylamine), commercialized by Lamberti S.p.A, and up to 100% by weight of a cyan ink for off-set inking.
Isopropyl thioxanthone (ITX) is chosen as reference photoinitiator.
The photopolymerizable compositions are milled with a three cylinders mill (laboratory scale) in order to homogenize the mix and applied with a thickness of 3 μm on a soft polyethylene substrate by means of a film coater (RK Print Coater Instrument Ltd).
The sample, placed in the sample lodgment of a FT-IR (FT-IR 430-Jasco), is exposed to a Mercury/Xenon Vapors light source at high pressure to 120 W/cm (L8868 Light-cure, Hamamatsu) set at a distance of 8 cm from the sample and at an angle of 30°.
IR spectra are acquired at constant time intervals during the photopolymerization and the reduction over time of the peak area at 1408 cm^−1 assigned to the acrylic double bond was determined by IR software (Perkin Elmer, Spectrum ONE v. 2.0). This allows to quantify the degree of polymerization over the time and therefore the efficiency of the photoinitiator.

[6] = Photo DSC reactivity in tripropylene glycol diacrylate; conditions: for Peak height / ΔH (peak area): 0.1% w/w compound, 0.1% w/w EDB, LED 400 nm, 24.3 mW/cm^2; for ΔH of polymerization of isomer 3 relative to isomer 1: Photo DSC peak area; for ΔH of polymerization of isomer 3 relative to isomer 1 / Reactivity of isomer 3 relative to isomer 1: isomer 3 versus isomer 1; for Reactivity of isomer 3 relative to isomer 1: Photo DSC peak height
Text: Comparison of the reactivity of the 1 and 3 derivatives of thioxanthone by means of Photo DSC.
The compound of Example 1 (dodecyl 7-methyl-9-oxo-9H-thioxanthene-3-carboxylate) and the compound of Example 8 (dodecyl 7-methyl-9-oxo-9H-thioxanthene-1-carboxylate, comparative) were formulated and evaluated by PhotoDSC.
The compound of Example 5 (N,N-diisobutyl-7-methyl-9-oxo-9H-thioxanthene-3-carboxamide) and the compound of Example 7 (N,N-diisobutyl-7-methyl-9-oxo-9H-thioxanthene-1-carboxamide, comparative) were also formulated and compared by PhotoDSC.
The formulations were prepared dissolving in tripropylene glycol diacrylate the compounds described in the Examples 1, 8, 5 and 7 at a concentration of 0.1% w/w and EDB (Ethyl 4-dimethylamino-benzoate) at a concentration of 0.1% w/w.
About 1 mg of formulation (exactly weighted) was kept into a DSC aluminum panel and analyzed by a Mettler DSC1 calorimeter equipped with a 400 nm LED with a power of 450 mW. The LED was set in order to irradiate the formulation with an intensity of 24.3 mW/cm^2.
During the exposition to LED at 400 nm the heat developed from the polymerization of formulations prepared with the compounds described in the Examples 1, 8, 5 and 7 was recorded as peak height and peak area (ΔH). The peak height is proportional to the rate of polymerization: higher is the peak—faster is the polymerization.

With `C=CCOC(=O)c1ccc2c(=O)c3cc(C)ccc3sc2c1` [Example 4, allyl 7-methyl-9-oxo-9H-thioxanthene-3-carboxylate] the “Through-cure (photoinitiator)” value [1] was 70 m/min, the Solubility [2] was 5% and the “% degree of polymerization after 1 sec” value [3] was 20.6%. For the same compound, the “% degree of polymerization after 2 sec” value [3] was 33.2%, the “% degree of polymerization after 5 sec” value [3] was 43.2% and the “Through-cure (sensitizer)” value [4] was 60 m/min. For the same compound, the “% degree of polymerization after 1 sec” value [5] was 5.9%, the “% degree of polymerization after 2 sec” value [5] was 18.3% and the “% degree of polymerization after 5 sec” value [5] was 35.3%.

With `CCCCCCCCCCCCOC(=O)c1ccc2c(=O)c3cc(C)ccc3sc2c1` [Example 1, dodecyl-7-methyl-9-oxo-9H-thioxanthene-3-carboxylate] the Peak height [6] was 58.9 W/g, the “ΔH (peak area)” value [6] was 266.4 J/g and the “ΔH of polymerization of isomer 3 relative to isomer 1” value [6] was 1.2. For the same compound, the “Reactivity of isomer 3 relative to isomer 1” value [6] was “about 1.5 times”, the “Through-cure (photoinitiator)” value [1] was 85 m/min and the Solubility [2] was 33%. The “% degree of polymerization after 1 sec” value [3] was 17.8%, the “% degree of polymerization after 2 sec” value [3] was 29.9% and the “% degree of polymerization after 5 sec” value [3] was 40.7%. For the same compound, the “Through-cure (sensitizer)” value [4] was 53 m/min, the “% degree of polymerization after 1 sec” value [5] was 19.6% and the “% degree of polymerization after 2 sec” value [5] was 36.1%. The “% degree of polymerization after 5 sec” value [5] was 47.2%.

Work on `Cc1ccc2sc3cc(C(=O)N4CCN(C)CC4)ccc3c(=O)c2c1` [Example 6, 4-methyl-piperazinyl 7-methyl-9-oxo-9H-thioxanthene-3-carboxamide] yielded a Solubility [2] of 5%.

With `COC(=O)c1ccc2c(=O)c3cc(C)ccc3sc2c1` [Example 3, methyl 7-methyl-9-oxo-9H-thioxanthene-3-carboxylate] the “Through-cure (photoinitiator)” value [1] was “Insoluble”, the Solubility [2] was “insoluble” and the “% degree of polymerization after 1 sec” value [3] was “Insoluble”. The “% degree of polymerization after 2 sec” value [3] was “Insoluble”, the “% degree of polymerization after 5 sec” value [3] was “Insoluble” and the “Through-cure (sensitizer)” value [4] was “Insoluble”. For the same compound, the “% degree of polymerization after 1 sec” value [5] was “Insoluble”, the “% degree of polymerization after 2 sec” value [5] was “Insoluble” and the “% degree of polymerization after 5 sec” value [5] was “Insoluble”.

In the case of `CCCCCOC(=O)c1ccc2c(=O)c3cc(C)ccc3sc2c1` [Example 2, pentyl 7-methyl-9-oxo-9H-thioxanthene-3-carboxylate], the “Through-cure (photoinitiator)” value [1] is reported as 5 m/min, the Solubility [2] is reported as 33% and the “% degree of polymerization after 1 sec” value [3] is reported as “Not reactive”. The “% degree of polymerization after 2 sec” value [3] was “Not reactive”, the “% degree of polymerization after 5 sec” value [3] was “Not reactive” and the “Through-cure (sensitizer)” value [4] was “Not reactive”. For the same compound, the “% degree of polymerization after 1 sec” value [5] was 2.5%, the “% degree of polymerization after 2 sec” value [5] was 3.1% and the “% degree of polymerization after 5 sec” value [5] was 7.2%.

In the case of `CCCCCCCCCCCCOC(=O)c1cccc2sc3ccc(C)cc3c(=O)c12` [Example 8, dodecyl 7-methyl-9-oxo-9H-thioxanthene-1-carboxylate], the Peak height [6] is reported as 38.4 W/g and the “ΔH (peak area)” value [6] is reported as 208.5 J/g.

For `Cc1ccc2sc3cccc(C(=O)N(CC(C)C)CC(C)C)c3c(=O)c2c1` [Example 7, N,N-diisobutyl-7-methyl-9-oxo-9H-thioxanthene-1-carboxamide], the Peak height [6] was 11.1 W/g and the “ΔH (peak area)” value [6] was 111.4 J/g.

With `Cc1ccc2sc3cc(C(=O)N(CC(C)C)CC(C)C)ccc3c(=O)c2c1` [Example 5, N,N-disobutyl 7-methyl-9-oxo-9H-thioxanthene-3-carboxamide] the Peak height [6] was 39.0 W/g, the “ΔH (peak area)” value [6] was 224.8 J/g and the “ΔH of polymerization of isomer 3 relative to isomer 1” value [6] was “about 2”. For the same compound, the “Reactivity of isomer 3 relative to isomer 1” value [6] was 3.5 times, the “Through-cure (photoinitiator)” value [1] was 90 m/min and the Solubility [2] was 50%. The “% degree of polymerization after 1 sec” value [3] was 22.3%, the “% degree of polymerization after 2 sec” value [3] was 36.7% and the “% degree of polymerization after 5 sec” value [3] was 45.8%. The “Through-cure (sensitizer)” value [4] was 60 m/min, the “% degree of polymerization after 1 sec” value [5] was 18.0% and the “% degree of polymerization after 2 sec” value [5] was 33.7%. For the same compound, the “% degree of polymerization after 5 sec” value [5] was 45.9%.

In the case of `CC(C)c1ccc2sc3ccccc3c(=O)c2c1` [ITX, isopropyl thioxanthone, reference compound], the “Through-cure (photoinitiator)” value [1] is reported as 95 m/min, the “% degree of polymerization after 1 sec” value [3] is reported as 19.6% and the “% degree of polymerization after 2 sec” value [3] is reported as 31.4%. For the same compound, the “% degree of polymerization after 5 sec” value [3] was 40.9%, the “Through-cure (sensitizer)” value [4] was 60 m/min and the “% degree of polymerization after 1 sec” value [5] was 10.0%. For the same compound, the “% degree of polymerization after 2 sec” value [5] was 18.9% and the “% degree of polymerization after 5 sec” value [5] was 33.0%.
